Reference: patent US9469863B2, “Aminoglycoside antibiotics, process for producing the same, and pharmaceutical use thereof” (MEIJI SEIKA KAISHA, LTD., priority 2007, dated 2016)
In brackets after ≈: the same amount, converted by molar mass.

Assays:
[1] = test system: Acinetobacter calcoaceticus ATCC23055; test: Antimicrobial activity, MIC by agar dilution method; type: cell-based; details: Mueller-Hinton agar, 37° C., 18 to 20 hr
Procedure: (§1) The antimicrobial activity of 2-hydroxykanamycin B and 2-hydroxykanamycin C was measured as the minimum inhibitory concentration (MIC) by an agar dilution method. Test bacteria which had been cultivated overnight in a growth medium were adjusted to 10^6 cells/ml, and one platinum loop thereof was inoculated in a Mueller-Hinton agar medium containing 2-hydroxykanamycin B or 2-hydroxykanamycin C (manufactured by Difco Laboratories Inc.), followed by cultivation at 37° C. for 18 to 20 hr.

[2] = test system: Bacillus subtilis ATCC6633; test: as above; type: cell-based; details: Mueller-Hinton agar, 37° C., 18 to 20 hr
Procedure: as §1

[3] = test system: Enterococcus faecalis ATCC29212; test: as above; type: cell-based; details: Mueller-Hinton agar, 37° C., 18 to 20 hr
Procedure: as §1

[4] = test system: Enterococcus faecium ATCC19434; test: as above; type: cell-based; details: Mueller-Hinton agar, 37° C., 18 to 20 hr
Procedure: as §1

[5] = test system: Escherichia coli ATCC25922; test: as above; type: cell-based; details: Mueller-Hinton agar, 37° C., 18 to 20 hr
Procedure: as §1

[6] = test system: Pseudomonas aeruginosa PA01; test: as above; type: cell-based; details: Mueller-Hinton agar, 37° C., 18 to 20 hr
Procedure: as §1

[7] = test system: Salmonella typhimurium ATCC13311; test: as above; type: cell-based; details: Salmonella enterica, Mueller-Hinton agar, 37° C., 18 to 20 hr
Procedure: as §1

[8] = test system: Staphylococcus aureus 209P JC-1; test: as above; type: cell-based; details: Mueller-Hinton agar, 37° C., 18 to 20 hr
Procedure: as §1

[9] = test system: Staphylococcus aureus ATCC29213; test: as above; type: cell-based; details: Mueller-Hinton agar, 37° C., 18 to 20 hr
Procedure: as §1

[10] = test system: Staphylococcus epidermidis ATCC14990; test: as above; type: cell-based; details: Mueller-Hinton agar, 37° C., 18 to 20 hr
Procedure: as §1

[11] = Physicochemical properties: solubility

For `NCC1OC(OC2C(N)C(O)C(N)C(OC3OC(CO)C(O)C(N)C3O)C2O)C(N)C(O)C1O` (centres unmarked) [2-Hydroxykanamycin B, 2-hydroxykanamycin B], the MIC [1] was 1 µg/mL (≈ 2 µM), the MIC [2] was 0.5 µg/mL (≈ 1 µM) and the MIC [3] was 64 µg/mL (≈ 128 µM). For the same compound, the MIC [4] was 64 µg/mL (≈ 128 µM), the MIC [5] was 4 µg/mL (≈ 8.01 µM) and the MIC [6] was 128 µg/mL (≈ 256 µM). It also gave an MIC [7] of 1 µg/mL (≈ 2 µM), an MIC [8] of 2 µg/mL (≈ 4 µM) and an MIC [9] of 2 µg/mL (≈ 4 µM). The MIC [10] was 1 µg/mL (≈ 2 µM), the Solubility ([11]; in chloroform) was “insoluble” and the Solubility ([11]; in ethyl acetate) was “insoluble”. For the same compound, the Solubility ([11]; in water) was “soluble”.

`NC1C(O)C(CO)OC(OC2C(N)C(O)C(N)C(OC3OC(CO)C(O)C(O)C3N)C2O)C1O` (centres unmarked) [2-Hydroxykanamycin C, 2-hydroxykanamycin C] gave an MIC [1] of 32 µg/mL (≈ 63.9 µM), an MIC [2] of 16 µg/mL (≈ 32 µM) and an MIC [3] of over 128 µg/mL. It also gave an MIC [4] of over 128 µg/mL, an MIC [5] of 128 µg/mL (≈ 256 µM) and an MIC [6] of over 128 µg/mL. For the same compound, the MIC [7] was 32 µg/mL (≈ 63.9 µM), the MIC [8] was 128 µg/mL (≈ 256 µM) and the MIC [9] was 128 µg/mL (≈ 256 µM). The MIC [10] was 32 µg/mL (≈ 63.9 µM), the Solubility ([11]; in chloroform) was “insoluble” and the Solubility ([11]; in ethyl acetate) was “insoluble”. For the same compound, the Solubility ([11]; in water) was “soluble”.
